Experimental data as given in US12343326B2, “Psychoactive medicines and their use for treating psychiatric and neurological conditions and disorders” (Transcend Therapeutics, Inc., priority 2021, dated 2025).

Tests used:
[1] = test system: myelin basic protein (MBP); test: Immunohistochemistry of myelin basic protein; assay type: in vivo, rat; details: 10 mg/kg IP, 24 h
Procedure: Immunohistochemistry: The in-life portion of the study was conducted at WuXi Apptec (Cranbury, NJ). Sectioning and staining of brains took place at Neuroscience Associates (NSA, Knoxville, TN). […] Brains were post-fixed in PFA before shipment to NSA for processing and staining. Hemisected brains were mounted, sectioned and stained using standard protocols with myelin-basic protein primary antibody (MBP SMI-99, 1:5000, Biolegend, San Diego, CA) and anti-mouse biotinylated secondary antibody (BA-2001, Vector Laboratories, Newark, CA). Slides were imaged using a Huron Digital Pathology TissueScope LE120 whole slide scanning system. 20× objective was used with a 0.4 μm/pixel resolution.

[2] = Excipient compatibility study (appearance, assay, related substances); assay type: physicochemical; details: closed vial
Procedure: Analyses were conducted at t=0, 2, 4 and 8 weeks for appearance, assay, and related substances for samples stored in closed vials at 25° C./60% RH and 40° C./75% RH.
Excipient Compatibility Sample Mixtures: The excipients and API were dispensed individually by weight into 20 mL clear borosilicate (type I) glass vials to fill the appropriate weights as listed in Table 12. Table 12 lists mixtures of API with varied excipients and a stand-alone control sample of API alone. Each excipient mixture sample preparation was conducted using a clean spatula to mix the vial ingredients for 30-60 seconds. Each vial was properly labeled with the description and storage conditions. One vial was used for testing at the initial (t=0) time point. Three vials, closed, were placed at each storage condition to allow sampling at each time point and one vial, closed, was placed at each storage condition for overage.

5HT2A receptor = target: T1, 5HT2A receptor (Homo sapiens, UniProt P28223); test: GPCRmax screen, agonist mode; assay type: cell-based
T1 construct: beta-galactosidase enzyme fragment (PathHunter complementation tag); host or cells: PathHunter cell lines

168 GPCRs [3] = target: 168 GPCRs (Homo sapiens, UniProt P30411); test: β-arrestin based GPCR screen (PathHunter / GPCRmax), agonist mode; assay type: cell-based; set-up: host or cells: PathHunter cell lines; details: BDKRB2; Agonist; 1 uM
Procedure: (§1) For agonist determination, cells were incubated with sample to induce response. […] Vehicle concentration was 1%.

168 GPCRs [4] = target: 168 GPCRs (Homo sapiens, UniProt O95136); test: as above; assay type: cell-based; set-up: host or cells: PathHunter cell lines
Procedure: as §1

168 GPCRs [5] = target: 168 GPCRs (Homo sapiens, UniProt Q9UKP6); test: as above; assay type: cell-based; set-up: host or cells: PathHunter cell lines
Procedure: as §1

168 GPCRs [6] = target: 168 GPCRs (Homo sapiens, UniProt P35414); test: as above; assay type: cell-based; set-up: host or cells: PathHunter cell lines; details: AGTRL1, Agonist
Procedure: as §1

168 GPCRs [7] = target: 168 GPCRs (Homo sapiens, UniProt Q9NSD7); test: as above; assay type: cell-based; set-up: host or cells: PathHunter cell lines
Procedure: as §1

168 GPCRs [8] = target: 168 GPCRs (Homo sapiens, UniProt P21554); test: as above; assay type: cell-based; set-up: host or cells: PathHunter cell lines
Procedure: as §1

168 GPCRs [9] = target: 168 GPCRs (Homo sapiens, UniProt O95838); test: as above; assay type: cell-based; set-up: host or cells: PathHunter cell lines; details: GLP2R
Procedure: as §1

168 GPCRs [10] = target: 168 GPCRs (Homo sapiens, UniProt O43614); test: as above; assay type: cell-based; set-up: host or cells: PathHunter cell lines
Procedure: as §1

168 GPCRs [11] = target: 168 GPCRs (Homo sapiens, UniProt P28222); test: as above; assay type: cell-based; set-up: host or cells: PathHunter cell lines; details: HTR1B
Procedure: as §1

168 GPCRs [12] = target: 168 GPCRs (Homo sapiens, UniProt P32238); test: as above; assay type: cell-based; set-up: host or cells: PathHunter cell lines; details: CCKAR, Agonist
Procedure: as §1

168 GPCRs [13] = target: 168 GPCRs (Homo sapiens, UniProt P51685); test: as above; assay type: cell-based; set-up: host or cells: PathHunter cell lines; details: CCR8, Agonist
Procedure: as §1

168 GPCRs [14] = target: 168 GPCRs (Homo sapiens, UniProt P35346); test: as above; assay type: cell-based; set-up: host or cells: PathHunter cell lines
Procedure: as §1

T1 sequence (P28223 whole entry, the tested form may be a part): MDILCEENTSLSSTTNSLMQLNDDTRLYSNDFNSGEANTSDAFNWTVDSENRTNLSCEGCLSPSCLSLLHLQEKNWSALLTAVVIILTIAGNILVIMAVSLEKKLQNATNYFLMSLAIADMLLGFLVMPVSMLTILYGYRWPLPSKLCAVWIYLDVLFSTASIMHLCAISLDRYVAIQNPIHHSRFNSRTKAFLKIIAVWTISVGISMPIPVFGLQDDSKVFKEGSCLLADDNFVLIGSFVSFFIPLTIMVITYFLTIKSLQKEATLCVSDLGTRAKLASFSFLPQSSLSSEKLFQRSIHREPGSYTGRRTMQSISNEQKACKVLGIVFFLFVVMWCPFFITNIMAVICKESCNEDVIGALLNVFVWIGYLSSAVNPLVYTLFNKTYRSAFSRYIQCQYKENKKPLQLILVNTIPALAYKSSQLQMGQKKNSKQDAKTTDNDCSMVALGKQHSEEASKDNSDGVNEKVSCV
Sequence of 168 GPCRs (Homo sapiens, UniProt P28222) (P28222 whole entry): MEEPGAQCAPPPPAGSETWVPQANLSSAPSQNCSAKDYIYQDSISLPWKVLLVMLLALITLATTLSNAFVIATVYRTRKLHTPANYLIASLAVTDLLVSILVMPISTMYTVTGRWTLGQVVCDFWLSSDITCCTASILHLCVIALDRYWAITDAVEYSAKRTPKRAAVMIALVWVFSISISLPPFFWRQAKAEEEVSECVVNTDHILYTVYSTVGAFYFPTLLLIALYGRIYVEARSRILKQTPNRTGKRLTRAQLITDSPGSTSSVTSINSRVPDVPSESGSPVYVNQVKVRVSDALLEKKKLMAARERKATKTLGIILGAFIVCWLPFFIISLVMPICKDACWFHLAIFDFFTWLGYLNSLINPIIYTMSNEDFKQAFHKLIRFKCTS
Sequence of 168 GPCRs (Homo sapiens, UniProt P32238) (P32238 whole entry): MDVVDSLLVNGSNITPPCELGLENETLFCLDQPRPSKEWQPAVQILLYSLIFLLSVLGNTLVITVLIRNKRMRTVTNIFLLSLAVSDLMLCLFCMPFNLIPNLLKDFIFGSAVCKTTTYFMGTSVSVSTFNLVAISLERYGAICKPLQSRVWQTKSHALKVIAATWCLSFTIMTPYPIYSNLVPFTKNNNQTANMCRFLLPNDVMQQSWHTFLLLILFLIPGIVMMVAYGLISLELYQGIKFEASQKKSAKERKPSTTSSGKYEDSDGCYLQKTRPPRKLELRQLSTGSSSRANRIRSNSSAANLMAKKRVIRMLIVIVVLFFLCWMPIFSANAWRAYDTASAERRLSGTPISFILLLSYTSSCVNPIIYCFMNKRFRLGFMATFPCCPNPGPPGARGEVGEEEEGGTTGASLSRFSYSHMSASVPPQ
Sequence of 168 GPCRs (Homo sapiens, UniProt Q9NSD7) (Q9NSD7 whole entry): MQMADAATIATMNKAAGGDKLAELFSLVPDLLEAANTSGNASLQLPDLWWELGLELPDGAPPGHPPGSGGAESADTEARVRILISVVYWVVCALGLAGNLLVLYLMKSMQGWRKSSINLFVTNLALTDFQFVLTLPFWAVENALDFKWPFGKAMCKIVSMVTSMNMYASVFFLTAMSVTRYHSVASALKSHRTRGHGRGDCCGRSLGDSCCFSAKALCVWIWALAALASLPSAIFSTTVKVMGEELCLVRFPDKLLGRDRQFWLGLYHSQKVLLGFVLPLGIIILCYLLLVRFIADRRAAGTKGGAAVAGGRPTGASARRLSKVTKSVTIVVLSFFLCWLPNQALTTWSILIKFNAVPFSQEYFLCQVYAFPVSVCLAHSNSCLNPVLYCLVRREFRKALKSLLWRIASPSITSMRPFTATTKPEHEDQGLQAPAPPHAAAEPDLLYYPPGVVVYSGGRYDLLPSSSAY
Sequence of 168 GPCRs (Homo sapiens, UniProt O95136) (O95136 whole entry): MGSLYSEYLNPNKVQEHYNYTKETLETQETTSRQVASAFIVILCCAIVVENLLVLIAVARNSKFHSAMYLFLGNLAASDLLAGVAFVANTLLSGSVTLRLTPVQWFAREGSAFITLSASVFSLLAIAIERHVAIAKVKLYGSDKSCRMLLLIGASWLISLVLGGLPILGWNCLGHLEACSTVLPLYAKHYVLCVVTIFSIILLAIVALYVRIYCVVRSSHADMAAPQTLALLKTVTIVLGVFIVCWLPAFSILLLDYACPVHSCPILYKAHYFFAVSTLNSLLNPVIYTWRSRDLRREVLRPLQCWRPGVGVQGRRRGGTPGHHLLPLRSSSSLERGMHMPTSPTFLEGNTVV
Sequence of 168 GPCRs (Homo sapiens, UniProt P51685) (P51685 whole entry): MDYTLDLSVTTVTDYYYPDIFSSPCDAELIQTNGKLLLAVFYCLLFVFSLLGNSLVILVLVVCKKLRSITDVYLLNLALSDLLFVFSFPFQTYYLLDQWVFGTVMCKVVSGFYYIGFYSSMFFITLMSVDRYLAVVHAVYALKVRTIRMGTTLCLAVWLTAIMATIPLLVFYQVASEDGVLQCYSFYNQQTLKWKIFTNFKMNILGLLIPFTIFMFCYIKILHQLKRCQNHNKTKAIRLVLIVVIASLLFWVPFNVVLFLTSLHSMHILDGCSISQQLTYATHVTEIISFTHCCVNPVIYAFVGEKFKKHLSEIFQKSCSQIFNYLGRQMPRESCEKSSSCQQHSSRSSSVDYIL
Sequence of 168 GPCRs (Homo sapiens, UniProt P35346) (P35346 whole entry): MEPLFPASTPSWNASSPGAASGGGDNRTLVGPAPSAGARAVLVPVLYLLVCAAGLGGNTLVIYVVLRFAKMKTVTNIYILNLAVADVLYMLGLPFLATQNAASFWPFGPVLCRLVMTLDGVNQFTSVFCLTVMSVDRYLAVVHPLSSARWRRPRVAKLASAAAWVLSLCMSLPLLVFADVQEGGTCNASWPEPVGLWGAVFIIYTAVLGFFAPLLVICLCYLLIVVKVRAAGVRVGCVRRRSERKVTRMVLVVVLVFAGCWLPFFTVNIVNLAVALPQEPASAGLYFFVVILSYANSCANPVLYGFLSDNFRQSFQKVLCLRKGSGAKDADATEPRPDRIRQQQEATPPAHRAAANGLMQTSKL
Sequence of 168 GPCRs (Homo sapiens, UniProt O95838) (O95838 whole entry): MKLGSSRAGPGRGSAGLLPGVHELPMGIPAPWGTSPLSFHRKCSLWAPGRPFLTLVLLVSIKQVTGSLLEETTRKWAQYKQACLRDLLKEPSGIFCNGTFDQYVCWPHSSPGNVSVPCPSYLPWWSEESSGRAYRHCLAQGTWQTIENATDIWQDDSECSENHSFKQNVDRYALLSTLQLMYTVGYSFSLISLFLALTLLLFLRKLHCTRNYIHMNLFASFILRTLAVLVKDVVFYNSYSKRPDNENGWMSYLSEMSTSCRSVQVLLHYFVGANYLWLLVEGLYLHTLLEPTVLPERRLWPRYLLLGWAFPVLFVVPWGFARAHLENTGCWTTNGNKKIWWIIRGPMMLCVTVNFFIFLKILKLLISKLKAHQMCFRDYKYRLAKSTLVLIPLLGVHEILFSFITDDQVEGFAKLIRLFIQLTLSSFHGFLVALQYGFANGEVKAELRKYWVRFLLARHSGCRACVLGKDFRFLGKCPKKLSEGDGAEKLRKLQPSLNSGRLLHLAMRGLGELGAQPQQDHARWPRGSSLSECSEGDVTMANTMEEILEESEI
Sequence of 168 GPCRs (Homo sapiens, UniProt O43614) (O43614 whole entry): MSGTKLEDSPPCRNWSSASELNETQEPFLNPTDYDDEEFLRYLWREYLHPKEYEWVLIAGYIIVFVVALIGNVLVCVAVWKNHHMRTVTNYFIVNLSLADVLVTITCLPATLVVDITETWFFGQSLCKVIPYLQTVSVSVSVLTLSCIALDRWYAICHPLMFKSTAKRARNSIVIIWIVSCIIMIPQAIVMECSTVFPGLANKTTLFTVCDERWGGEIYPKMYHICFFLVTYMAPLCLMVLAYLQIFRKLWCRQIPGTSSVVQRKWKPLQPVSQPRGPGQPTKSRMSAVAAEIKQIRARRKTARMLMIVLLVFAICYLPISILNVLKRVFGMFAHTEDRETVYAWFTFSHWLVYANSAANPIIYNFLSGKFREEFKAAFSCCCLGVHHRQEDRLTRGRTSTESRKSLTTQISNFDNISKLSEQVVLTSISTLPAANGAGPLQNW
Sequence of 168 GPCRs (Homo sapiens, UniProt P21554) (P21554 whole entry): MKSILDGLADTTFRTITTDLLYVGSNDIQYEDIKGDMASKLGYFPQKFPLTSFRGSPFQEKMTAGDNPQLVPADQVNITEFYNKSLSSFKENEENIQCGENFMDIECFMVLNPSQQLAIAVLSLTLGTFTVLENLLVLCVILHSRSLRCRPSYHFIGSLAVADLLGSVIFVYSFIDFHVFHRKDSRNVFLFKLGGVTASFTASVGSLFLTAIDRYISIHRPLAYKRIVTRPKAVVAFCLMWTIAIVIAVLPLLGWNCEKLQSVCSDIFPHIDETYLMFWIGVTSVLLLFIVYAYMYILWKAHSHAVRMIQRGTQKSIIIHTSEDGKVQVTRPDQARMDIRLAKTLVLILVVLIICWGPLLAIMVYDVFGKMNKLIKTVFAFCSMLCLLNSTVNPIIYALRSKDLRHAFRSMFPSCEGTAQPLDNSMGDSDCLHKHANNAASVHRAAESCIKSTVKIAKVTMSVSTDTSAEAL
Sequence of 168 GPCRs (Homo sapiens, UniProt Q9UKP6) (Q9UKP6 whole entry): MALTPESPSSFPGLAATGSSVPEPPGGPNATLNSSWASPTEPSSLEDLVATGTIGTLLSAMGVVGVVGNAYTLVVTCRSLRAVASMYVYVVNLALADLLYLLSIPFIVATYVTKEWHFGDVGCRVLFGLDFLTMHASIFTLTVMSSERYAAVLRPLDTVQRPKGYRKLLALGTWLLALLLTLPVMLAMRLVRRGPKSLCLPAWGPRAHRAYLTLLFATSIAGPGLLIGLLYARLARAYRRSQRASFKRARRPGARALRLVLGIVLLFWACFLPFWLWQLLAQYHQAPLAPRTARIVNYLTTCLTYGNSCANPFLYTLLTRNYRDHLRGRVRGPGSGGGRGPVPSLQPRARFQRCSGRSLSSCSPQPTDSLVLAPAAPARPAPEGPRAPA

## CNC(C)C(=O)c1ccc2c(c1)OCO2 (stereo not shown) [methylone, 3,4-methylenedioxy-N-methylcathinone]
[1]
  MBP expression, basolateral nucleus of the amygdala, vs. vehicle: significant reduction in MBP
  MBP expression, central nucleus of the amygdala, vs. vehicle: significant reduction in MBP
  MBP expression, cortex (control region): No change in MBP
[2]; 4 Week 25° C./60% RH
  Assay (% Recovery): 100.3%
[2]; 8 Week 40° C./75% RH
  Assay (% Recovery): 100.3%
5HT2A receptor; 1 or 10 mM, threshold 30%
  agonist % activity: no agonist or antagonist activity
5HT2A receptor; HTR2A, Agonist mode, 10 uM
  activity at 10 µM: 1.4%
5HT2A receptor; HTR2A, Agonist, 1 uM
  activity at 1 µM: -0.1%
168 GPCRs [3]
  activity at 1 µM: -3.6%
168 GPCRs [4]; EDG5, Agonist mode, 10 uM
  activity at 10 µM: 3.7%
168 GPCRs [4]; EDG5, Agonist, 1 uM
  activity at 1 µM: -4.7%
168 GPCRs [5]; UTR2, Agonist mode, 10 uM
  activity at 10 µM: 0%
168 GPCRs [5]; UTR2, Agonist, 1 uM
  activity at 1 µM: 0.6%
168 GPCRs [6]; 1 uM
  activity at 1 µM: -0.9%
168 GPCRs [6]; 10 uM
  activity at 10 µM: -1.5%
168 GPCRs [7]; RXFP3, Agonist mode, 10 uM
  activity at 10 µM: -8.7%
168 GPCRs [7]; RXFP3, Agonist, 1 uM
  activity at 1 µM: -7.6%
168 GPCRs [8]; CNR1, Agonist mode, 10 uM
  activity at 10 µM: -2.7%
168 GPCRs [8]; CNR1, Agonist, 1 uM
  activity at 1 µM: -0.4%
168 GPCRs [9]; Agonist mode, 10 uM
  activity at 10 µM: -13%
168 GPCRs [9]; Agonist, 1 uM
  activity at 1 µM: -1.5%
168 GPCRs [10]; HCRTR2, Agonist mode, 10 uM
  activity at 10 µM: 0.2%
168 GPCRs [10]; HCRTR2, Agonist, 1 uM
  activity at 1 µM: 0.2%
168 GPCRs [11]; Agonist mode, 10 uM
  activity at 10 µM: 6.7%
168 GPCRs [11]; Agonist, 1 uM
  activity at 1 µM: 3.3%
168 GPCRs [12]; 1 uM
  activity at 1 µM: 0.1%
168 GPCRs [12]; 10 uM
  activity at 10 µM: 0.3%
168 GPCRs [13]; 1 uM
  activity at 1 µM: -0.2%
168 GPCRs [13]; 10 uM
  activity at 10 µM: -0.6%
168 GPCRs [14]; SSTR5, Agonist mode, 10 uM
  activity at 10 µM: -1.3%
168 GPCRs [14]; SSTR5, Agonist, 1 uM
  activity at 1 µM: -2.4%
